Like-named read-outs stand apart in the source and are kept apart here.
Experiments:
[1] = test system: HIV-1 (HIV-1 RF, HIV-1 NL4-3) in CEM-SS / MT-2 cells; test: Cytopathic effect (CPE) inhibition assay (XTT/MTT dye reduction); format: cell-based
How it was run: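 Readout is XTT reduction (A450, 4 h) after six days of culturing virus-infected (moi 0.025–0.819) or mock-infected CEM-SS/MT-2 cells, 2×10^4 per well, with half-log compound series. Antiviral EC50 and cytotoxic CC50 are relative to uninfected compound-free cells. Therapeutic index is CC50 divided by EC50.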

[2] = biological target: T1, HIV-1 protease (Q7S mutant form) (Human immunodeficiency virus type 1 group M subtype B, UniProt P04585, Q495S); test: HIV-1 Protease RET assay; format: biochemical
T1 construct: made in house
How it was run: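 Ki values fitted with the Morrison tight-binding equation from steady-state RET cleavage (ex 340, em 490 nm) of 5 μM RE(EDANS)SQNYPIVQK(DABCYL)R. Buffer pH 4.8 acetate, 1M NaCl, 5 mM DTT, 1 mg/ml BSA, 10% DMSO; 2 nM Q7S mutant dimer, 37 °C, 12 min.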

[3] = Human immunodeficiency virus 1, NL43, unit inferred, read-out: EC50
[4] = Human immunodeficiency virus 1, NL43, read-out: Ave CPE EC50
[5] = Ave. Ki (nM), RET assay, Q7S enzyme, Morrison tight binding fit

CCOC(=O)N[C@@H](Cc1ccccc1)[C@H](O)C(=O)N1CSC(C)(C)[C@H]1C(=O)NCc1ccccc1C
EC50 [1, 3]: 1640 nM
Ki ([2]; Ki, unit inferred): 0.88 nM

Cc1cccc(C)c1OCC(=O)N[C@@H](Cc1ccccc1)[C@H](O)C(=O)N1CSC(C)(C)[C@H]1C(=O)NCC1CC1 [Example B27, (R)-3-{(2S,3S)-3-[2-(2,6-Dimethyl-phenoxy)-ethanoylamino]-2-hydroxy-4-phenyl-butanoyl}-5,5-dimethyl-thiazolidine-4-carboxylic acid cyclopropylmethyl-amide]
EC50 [1, 4]: 506 nM
Ki [2, 5]: 0.5 nM

Cc1cccc(C)c1OCC(=O)N[C@@H](Cc1ccccc1)[C@H](O)C(=O)N1CSC(C)(C)[C@H]1C(=O)NCc1ccccc1Cl
EC50 [1, 3]: 1540 nM
Ki ([2]; Ki, unit inferred): ≤ 0.1 nM

Cc1c(O)cccc1C(=O)N[C@@H](Cc1ccccc1)[C@H](O)C(=O)N1CSC(C)(C)[C@H]1C(=O)NCc1cc2ccccc2n1C [Example A63, (R)-3-[(2S,3S)-2-Hydroxy-3-(3-hydroxy-2-methyl-benzoylamino)-4-phenyl-butyryl]-5,5-dimethyl-thiazolidine-4-carboxylic acid (1-methyl-1H-indol-2-ylmethyl)-amide]
EC50 [1, 4]: 1190 nM
Ki [2, 5]: 4.5 nM

CC1(C)SCN(C(=O)[C@@H](O)[C@H](Cc2ccccc2)NC(=O)CSc2nc[nH]n2)[C@@H]1C(=O)N[C@@H]1C=CCCC1
EC50 [1, 3]: 1280 nM
Ki ([2]; Ki, unit inferred): 6.1 nM

C=CC(C)COC(=O)NC(Cc1ccccc1)[C@H](O)C(=O)N1CSC(C)(C)C1C(=O)NCc1ccccc1C (stereo partly drawn)
EC50 [1, 3]: ≥ 3200 nM
Ki ([2]; Ki, unit inferred): 15.1 nM

CCC(=O)NC(Cc1ccccc1)[C@H](O)C(=O)N1CSC(C)(C)C1C(=O)NCc1ccccc1C (stereo partly drawn)
EC50 [1, 3]: ≥ 3200 nM
Ki ([2]; Ki, unit inferred): 8.4 nM

Cc1c(F)cccc1C(=O)N[C@@H](Cc1ccccc1)[C@H](O)C(=O)N1CSC(C)(C)[C@H]1C(=O)N[C@H]1CCc2ccccc21 [Example B82, (R)-3-((2S,3S)-3-{[1-(3-Fluoro-2-methyl-phenyl)-methanoyl]-amino}-2-hydroxy-4-phenyl-butanoyl)-5,5-dimethyl-thiazolidine-4-carboxylic acid (S)-indan-1-ylamide]
EC50 [1, 4]: 1290 nM
Ki [2, 5]: 0.19 nM

Cc1ccccc1CNC(=O)[C@@H]1C[C@@H]2CCCC[C@@H]2CN1C[C@@H](O)[C@H](CSc1ccccc1)NC(=O)c1cccc(O)c1C
EC50 [1, 3]: 901 nM
Ki ([2]; Ki, unit inferred): 6.4 nM

Cc1c(O)cccc1C(=O)N[C@@H](Cc1ccccc1)[C@H](O)C(=O)N1CSC(C)(C)[C@H]1C(=O)NCc1cc2ccccc2o1 [Example A62, (R)-3-[(2S,3S)-2-Hydroxy-3-(3-hydroxy-2-methyl-benzoylamino)-4-phenyl-butyryl]-5,5-dimethyl-thiazolidine-4-carboxylic acid (benzofuran-2-ylmethyl)-amide]
EC50 [1, 4]: 2260 nM
Ki [2, 5]: 9.6 nM

Cc1ccccc1CNC(=O)[C@H]1N(C(=O)[C@@H](O)[C@H](Cc2ccccc2)NC(=O)c2cccc3[nH]ccc23)CSC1(C)C [Example B8, 1H-Indole-4-carboxylic acid {(1S,2S)-1-benzyl-3-[(R)-5,5-dimethyl-4-(2-methyl-benzylcarbamoyl)-thiazolidin-3-yl]-2-hydroxy-3-oxo-propyl}-amide]
EC50 [1, 4]: 474 nM
Ki [2, 5]: 0.63 nM

CCC(C)C(=O)NC(Cc1ccccc1)C(O)C(=O)N1CSC(C)(C)[C@H]1C(=O)NCc1ccccc1C (stereo partly drawn) [Example B65, 3-[(2S,3S)-2-Hydroxy-3-((S)-2-methyl-butyrylamino)-4-phenyl-butyryl]-5,5-dimethyl-thiazolidine-4-carboxylic acid 2-methyl-benzylamide]
EC50 [1, 4]: 1640 nM
Ki [2, 5]: 4.9 nM

Cc1c(O)cccc1C(=O)N[C@@H](Cc1ccccc1)[C@H](O)C(=O)N1CC(F)(F)C(C)(C)[C@H]1C(=O)NCc1ccco1 [Example C20, (S)-4,4-Difluoro-1-[(2S,3S)-2-hydroxy-3-(3-hydroxy-2-methyl-benzoylamino)-4-phenyl-butyryl]-3,3-dimethyl-pyrrolidine-2-carboxylic acid (furan-2-ylmethyl)-amide]
EC50 [1, 4]: 35 nM
Ki [2, 5]: < 0.1 nM

Cc1ccccc1CNC(=O)[C@H]1N(C(=O)[C@@H](O)[C@H](Cc2ccccc2)NC(=O)C2CC2)CSC1(C)C [Example B15, 3-[(S)-3-(Cyclopropanecarbonyl-amino)-2-hydroxy-4-phenyl-butyryl]-5,5-dimethyl-thiazolidine-4-carboxylic acid 2-methyl-benzylamide]
EC50 [1, 4]: 2300 nM
Ki [2, 5]: 1.3 nM

Cc1ccc(C(=O)N[C@@H](Cc2ccccc2)[C@H](O)C(=O)N2CSC(C)(C)[C@H]2C(=O)NCc2ccco2)c(C)c1O
EC50 [1, 3]: 488 nM
Ki ([2]; Ki, unit inferred): 2 nM

CCCNC(=O)[C@H]1N(C(=O)[C@@H](O)[C@H](Cc2ccccc2)NC(=O)c2cc(C)cc(O)c2C)CC(F)(F)C1(C)C [Example D4, (S)-4,4-Difluoro-1-[(2S,3S)-2-hydroxy-3-(3-hydroxy-2,5-dimethyl-benzoylamino)-4-phenyl-butyryl]-3,3-dimethyl-pyrrolidine-2-carboxylic acid propylamide]
EC50 [1, 4]: 9 nM
Ki [2, 5]: < 0.1 nM

Cc1c(O)cccc1C(=O)N[C@@H](Cc1ccccc1)[C@H](O)C(=O)N1CSC(C)(C)[C@H]1C(=O)N1CCSCC1 [Example A33, N-{(1S,2S)-1-Benzyl-3-[(R)-5,5-dimethyl-4-(1-thiomorpholin-4-yl-methanoyl)-thiazolidin-3-yl]-2-hydroxy-3-oxo-propyl}-3-hydroxy-2-methyl-benzamide]
EC50 [1, 4]: 749 nM
Ki [2, 5]: 5.1 nM

Cc1ccc(C(=O)N[C@@H](Cc2ccccc2)[C@H](O)C(=O)N2CSC(C)(C)[C@H]2C(=O)NCc2cccs2)c(C)c1O
EC50 [1, 3]: 332 nM
Ki ([2]; Ki, unit inferred): 0.39 nM

Cc1ccccc1CNC(=O)[C@H]1N(C(=O)[C@@H](O)[C@H](Cc2ccccc2)NC(=O)c2cccc3[nH]ncc23)CSC1(C)C [Example B9, 1H -Indazle-4-carboxylic acid {1-benzyl-3-[5,5-dimethyl-4-(2-methyl-benzylcarbamoyl)-thiazolidin-3-yl]-2-hydroxy-3-oxo-propyl}-amide]
EC50 [1, 4]: 452 nM
Ki [2, 5]: 1.1 nM

C=CCCOC(=O)N[C@@H](Cc1ccccc1)[C@H](O)C(=O)N1CSC(C)(C)[C@H]1C(=O)NCc1ccccc1C [Example B14, {(1S,2S)-1-Benzyl-3-[(R)-5,5-dimethyl-4-(2-methyl-benzylcarbamoyl)-thiazolidin-3-yl]-2-hydroxy-3-oxo-propyl}-carbamic acid but-3-enyl ester]
EC50 [1, 4]: 1660 nM
Ki [2, 5]: 2.7 nM

C#CCNC(=O)[C@H]1N(C(=O)[C@@H](O)[C@H](Cc2ccccc2)NC(=O)c2cccc3[nH]ncc23)CSC1(C)C [Example B35, 1-H-indazole-4-carboxylic acid [1-benzyl-3-(5,5-dimethyl-4-prop-2-ynylcarbamoyl-thiazolidin-3-yl)-2-hydroxy-3-oxo-propyl]-amide]
EC50 [1, 4]: 564 nM
Ki [2, 5]: 11 nM

Cc1ccccc1CNC(=O)[C@H]1N(C(=O)[C@@H](O)[C@H](Cc2ccccc2)NC(=O)NCc2ccccc2)CSC1(C)C [Example B59, 3-[(2S,3S)-3-(3-Benzyl-ureido)-2-hydroxy-4-phenyl-butyryl]-5,5-dimethyl-thiazolidine-4-carboxylic acid 2-methyl-benzylamide]
EC50 [1, 4]: 1820 nM
Ki [2, 5]: 2.1 nM

C#CCOC(=O)N[C@@H](Cc1ccccc1)[C@H](O)C(=O)N1CSC(C)(C)[C@H]1C(=O)NCc1ccccc1C(F)(F)F [Example B54, {1-Benzyl-3-[5,5-dimethyl-4-(2-trifluoromethyl-benzylcarbamoyl)-thiazolidin-3-yl]-2-hydroxy-3-oxo-propyl}-carbamic acid prop-2-ynyl ester]
EC50 [1, 4]: 1660 nM
Ki [2, 5]: 2.3 nM

Cc1cccc(C)c1OCC(=O)N[C@@H](Cc1ccccc1)[C@H](O)C(=O)N1CSC(C)(C)[C@H]1C(=O)NCc1ccccc1C(F)(F)F
EC50 [1, 3]: 1950 nM
Ki ([2]; Ki, unit inferred): 1.4 nM

CC1(C)SCN(C(=O)[C@@H](O)[C@H](Cc2ccccc2)NC(=O)c2cccc3c2CCN3)[C@@H]1C(=O)NC[C@H]1CCCO1 [Example B44, 2,3-Dihydro-1H-indole-4-carboxylic acid [(1S,2S)-1-benzyl-3-((R)-5,5-dimethyl-4-{[(R)-1-(tetrahydro-furan-2-yl)methyl]-carbamoyl}-thiazolidin-3-yl)-2-hydroxy-3-oxo-propyl]-amide]
EC50 [1, 4]: 660 nM
Ki [2, 5]: 4.8 nM

Cc1ccccc1CCC(=O)[C@H]1N(C(=O)[C@@H](O)[C@H](Cc2ccccc2)NC(=O)O[C@H]2CCOC2)CSC1(C)C
EC50 [1, 3]: 573 nM
Ki ([2]; Ki, unit inferred): 0.76 nM

CCCNC(=O)[C@H]1N(C(=O)[C@@H](O)[C@H](Cc2ccccc2)NC(=O)OCCC)CSC1(C)C
EC50 [1, 3]: ≥ 3200 nM
Ki ([2]; Ki, unit inferred): 12.7 nM

CC1(C)SCN(C(=O)[C@@H](O)[C@H](Cc2ccccc2)NC(=O)CSc2nc[nH]n2)[C@@H]1C(=O)N[C@H]1CCc2ccccc21
EC50 [1, 3]: 1230 nM
Ki ([2]; Ki, unit inferred): 3.9 nM

CC1(C)SCN(C(=O)[C@@H](O)[C@H](Cc2ccccc2)NC(=O)CSc2nc[nH]n2)[C@@H]1C(=O)N[C@H]1CCOc2ccccc21 [Example B31, (R)-3-{(2S,3S)-2-Hydroxy-4-phenyl-3-[2-(1H-[1,2,4]triazol-3-ylsulfanyl)-ethanoylamino]-butanoyl}-5,5-dimethyl-thiazolidine-4-carboxylic acid (S)-chroman-4-ylamide]
EC50 [1, 4]: > 1000 nM
Ki [2, 5]: 4.7 nM

CCCNC(=O)[C@@H]1CC(F)(F)CN1C(=O)[C@@H](O)[C@H](Cc1ccccc1)NC(=O)COc1c(C)cccc1C [Example C45, 1-{3-[2-(2,6-Dimethyl-phenoxy)-acetylamino]-2-hydroxy-4-phenyl-butyryl}-4,4-difluoro-pyrrolidine-2-carboxylic acid propylamide]
EC50 [1, 4]: 1580 nM
Ki [2, 5]: 3.6 nM

Reference: US7094909B2, “HIV protease inhibitors, compositions containing the same, their pharmaceutical uses and materials for their synthesis” (priority 2001, dated 2006)
